These results are taken from ChEMBL document CHEMBL1201862, “PubChem BioAssay data set” (2004).

Active and inactive are the calls of the source.

What all share (type): functional
The nature of assay [1]: A Cell Based Secondary Assay To Explore Cytotoxicity of Compounds that Sensitize Mycobacterium Tuberculosis to Beta-Lactam Antibiotics.
Assay [2] addresses Lysosomal acid glucosylceramidase (Homo sapiens, UniProt P04062). The experiment in a line: Dose response cell-based high throughput screening assay to identify enhancers of beta-glucosidase activity. [Related pubchem assays: 784 ].
The target of assay [3] is T1, Neuropeptide Y receptor type 1 (Homo sapiens, UniProt P25929).
T1 sequence (P25929 whole entry): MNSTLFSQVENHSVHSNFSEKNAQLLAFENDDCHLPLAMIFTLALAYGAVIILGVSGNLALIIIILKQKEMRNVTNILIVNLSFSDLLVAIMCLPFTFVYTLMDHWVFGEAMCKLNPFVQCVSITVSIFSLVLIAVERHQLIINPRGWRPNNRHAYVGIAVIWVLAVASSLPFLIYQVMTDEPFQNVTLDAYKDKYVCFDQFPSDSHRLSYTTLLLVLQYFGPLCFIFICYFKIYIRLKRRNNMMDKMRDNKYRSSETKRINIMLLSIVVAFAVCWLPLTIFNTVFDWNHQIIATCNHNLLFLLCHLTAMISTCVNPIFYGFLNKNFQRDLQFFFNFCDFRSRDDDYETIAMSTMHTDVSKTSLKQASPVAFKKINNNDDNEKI
The experiment in a line: Fluorescence-based counterscreen for agonists of NPY-Y2: cell-based high-throughput dose response assay for agonists of NPY-Y1. On the technique in general: The purpose of a counterscreen is to sort out artefacts and off-target activity.

The target in assay [4] is T2, Neuropeptide Y receptor type 2 (Homo sapiens, UniProt P49146).
T2 sequence (P49146 whole entry): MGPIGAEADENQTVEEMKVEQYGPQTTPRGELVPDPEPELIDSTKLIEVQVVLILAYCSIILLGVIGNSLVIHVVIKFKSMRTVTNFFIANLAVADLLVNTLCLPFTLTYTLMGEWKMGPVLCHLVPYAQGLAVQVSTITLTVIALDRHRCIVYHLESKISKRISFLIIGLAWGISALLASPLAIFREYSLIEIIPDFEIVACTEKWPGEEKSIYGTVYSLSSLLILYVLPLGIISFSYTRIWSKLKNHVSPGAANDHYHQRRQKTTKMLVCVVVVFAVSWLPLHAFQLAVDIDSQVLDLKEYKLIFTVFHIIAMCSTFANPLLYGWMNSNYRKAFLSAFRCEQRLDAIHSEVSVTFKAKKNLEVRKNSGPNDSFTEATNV
The experiment in a line: Fluorescence-based cell-based high-throughput dose response assay for agonists of NPY-Y2. [Related pubchem assays: 1703 (Screening assay (CNGC inhibitors).), 1359 (Screening assay (NPY-Y2 potentiators or agonists).), 1304 (Screening assay (NPY-Y1 potentiators or agonists).), 1710 (Screening assay (NPY-Y2 agonists).), 1791 (Summary AID.)].

Another assay concerns HEK293. Briefly: Fluorescence-based counterscreen for potentiators or agonists of NPY-Y2: cell-based high-throughput dose response assay to identify inhibitors of cyclic nucleotide gated ion channel (CNGC) activity. In this assay, the parental HEK293 cell line transfected with a cyclic-nucleotide gated ion channel (CNGC)-based cAMP sensor is used to measure inhibition of isoproterenol-induced CNGC activity by test compound. The note with it: Homo sapiens.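 Also: stimulus is 1 µM isoproterenol at EC100 plus PDE inhibitor Ro 20-1724 at 25 µM.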

The nature of assay [5]: enhancers of respiration in Yfh1-depleted yeast, dose response, Friedreich's ataxia, plus single-dose screen (AID 1465).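 Also: yeast depleted of Yfh1p frataxin homolog grown on glycerol needing respiration; WST-1 tetrazolium dye reduction as measure of cellular dehydrogenase metabolic activity.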
Another assay concerns the target T3, Protein skinhead-1 (Caenorhabditis elegans, UniProt P34707).
T3 sequence (P34707 whole entry): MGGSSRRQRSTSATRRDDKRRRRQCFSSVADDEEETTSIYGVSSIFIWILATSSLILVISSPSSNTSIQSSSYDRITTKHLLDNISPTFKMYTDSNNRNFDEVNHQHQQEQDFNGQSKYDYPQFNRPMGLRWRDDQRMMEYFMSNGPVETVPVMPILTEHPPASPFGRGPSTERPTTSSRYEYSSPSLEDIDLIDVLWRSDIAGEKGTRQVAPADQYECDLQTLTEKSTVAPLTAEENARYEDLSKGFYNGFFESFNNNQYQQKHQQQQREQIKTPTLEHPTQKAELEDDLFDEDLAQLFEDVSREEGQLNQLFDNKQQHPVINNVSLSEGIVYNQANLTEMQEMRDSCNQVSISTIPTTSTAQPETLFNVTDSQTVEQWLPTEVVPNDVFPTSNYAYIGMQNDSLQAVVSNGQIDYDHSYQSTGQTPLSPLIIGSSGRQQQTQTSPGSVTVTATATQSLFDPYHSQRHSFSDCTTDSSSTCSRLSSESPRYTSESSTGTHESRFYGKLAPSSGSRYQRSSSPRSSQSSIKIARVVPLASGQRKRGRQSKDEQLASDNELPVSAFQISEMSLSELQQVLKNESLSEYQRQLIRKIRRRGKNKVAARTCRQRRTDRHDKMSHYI

The nature of assay [6]: Counterscreen for IDE inhibitors: Luminescence-based cell-based high throughput dose response assay to identify compounds that are cytotoxic to HEK cells. [Related pubchem assays: 434962 (Primary screen (IDE inhibitors in singlicate)), 449730 (Counterscreen (Cytotoxicity in triplicate)), 435028 (Confirmation (IDE inhibitors in triplicate)) …. The note with it: HEK293.
For assay [7], the target named is T4, Rac GTPase-activating protein 1 (Homo sapiens, UniProt Q9H0H5).
T4 sequence (Q9H0H5 whole entry): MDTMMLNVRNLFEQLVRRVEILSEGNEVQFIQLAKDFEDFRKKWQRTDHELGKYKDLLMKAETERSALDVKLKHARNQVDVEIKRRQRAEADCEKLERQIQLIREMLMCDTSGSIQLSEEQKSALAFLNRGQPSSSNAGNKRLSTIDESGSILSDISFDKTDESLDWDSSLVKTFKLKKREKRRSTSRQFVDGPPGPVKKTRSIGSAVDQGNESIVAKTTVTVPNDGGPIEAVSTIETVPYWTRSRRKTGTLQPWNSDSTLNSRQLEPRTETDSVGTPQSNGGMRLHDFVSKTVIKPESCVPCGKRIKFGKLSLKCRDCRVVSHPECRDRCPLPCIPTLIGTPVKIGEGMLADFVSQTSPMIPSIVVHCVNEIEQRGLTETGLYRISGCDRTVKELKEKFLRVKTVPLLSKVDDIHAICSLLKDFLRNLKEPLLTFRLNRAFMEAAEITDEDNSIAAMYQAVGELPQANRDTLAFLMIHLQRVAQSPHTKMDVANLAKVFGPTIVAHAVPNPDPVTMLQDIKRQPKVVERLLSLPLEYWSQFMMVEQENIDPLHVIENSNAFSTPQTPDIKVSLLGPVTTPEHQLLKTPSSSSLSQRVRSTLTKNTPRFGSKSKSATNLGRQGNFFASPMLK
The experiment in a line: MgcRacGAP GTPase-activating activity inhibitors, confirmation, biochemical, ADP Hunter fluorescence, primary and confirmatory (AID 624330).

A further assay addresses T5, Insulin-degrading enzyme (Homo sapiens, UniProt P14735).
T5 sequence (P14735 whole entry): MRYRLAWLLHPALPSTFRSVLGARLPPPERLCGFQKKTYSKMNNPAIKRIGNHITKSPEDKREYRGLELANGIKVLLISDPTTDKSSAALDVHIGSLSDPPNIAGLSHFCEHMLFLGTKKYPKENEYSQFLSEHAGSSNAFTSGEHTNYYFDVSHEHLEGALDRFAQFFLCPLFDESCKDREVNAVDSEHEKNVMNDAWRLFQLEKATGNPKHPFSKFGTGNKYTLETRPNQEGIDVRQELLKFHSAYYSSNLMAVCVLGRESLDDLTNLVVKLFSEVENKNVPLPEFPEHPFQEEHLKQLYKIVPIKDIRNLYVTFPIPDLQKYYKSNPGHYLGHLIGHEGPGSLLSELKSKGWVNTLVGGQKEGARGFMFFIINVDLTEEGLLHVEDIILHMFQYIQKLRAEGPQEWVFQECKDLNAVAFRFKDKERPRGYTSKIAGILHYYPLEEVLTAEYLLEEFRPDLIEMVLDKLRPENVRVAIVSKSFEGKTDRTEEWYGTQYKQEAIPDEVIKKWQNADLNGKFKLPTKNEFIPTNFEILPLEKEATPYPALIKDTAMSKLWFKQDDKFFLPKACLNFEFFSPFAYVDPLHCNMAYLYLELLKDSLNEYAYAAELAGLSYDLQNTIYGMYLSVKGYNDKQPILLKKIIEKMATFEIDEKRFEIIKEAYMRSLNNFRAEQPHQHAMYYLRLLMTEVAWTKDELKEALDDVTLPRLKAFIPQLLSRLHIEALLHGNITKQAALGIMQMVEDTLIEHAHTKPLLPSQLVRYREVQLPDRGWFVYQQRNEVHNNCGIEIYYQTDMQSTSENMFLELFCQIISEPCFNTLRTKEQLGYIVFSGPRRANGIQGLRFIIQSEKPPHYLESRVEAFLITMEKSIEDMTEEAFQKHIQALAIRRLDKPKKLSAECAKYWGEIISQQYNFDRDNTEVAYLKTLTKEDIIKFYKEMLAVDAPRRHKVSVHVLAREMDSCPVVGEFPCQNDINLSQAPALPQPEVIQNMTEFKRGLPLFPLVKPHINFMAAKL
The experiment in a line: Dose Response: Fluorescence polarization-based cell-based high throughput dose response assay for inhibitors of insulin-degrading enzyme (IDE). [Related pubchem assays: 434962 (Primary screen (IDE inhibitors in singlicate)), 449730 (Counterscreen (Cytotoxicity in triplicate)), 435028 (Confirmation (IDE inhibitors in triplicate)), 434984 (Summary …. For orientation: In fluorescence polarisation assays a small probe gives low polarisation when free and higher when bound to something large.

Chain of Lysosomal acid glucosylceramidase (P04062 whole entry): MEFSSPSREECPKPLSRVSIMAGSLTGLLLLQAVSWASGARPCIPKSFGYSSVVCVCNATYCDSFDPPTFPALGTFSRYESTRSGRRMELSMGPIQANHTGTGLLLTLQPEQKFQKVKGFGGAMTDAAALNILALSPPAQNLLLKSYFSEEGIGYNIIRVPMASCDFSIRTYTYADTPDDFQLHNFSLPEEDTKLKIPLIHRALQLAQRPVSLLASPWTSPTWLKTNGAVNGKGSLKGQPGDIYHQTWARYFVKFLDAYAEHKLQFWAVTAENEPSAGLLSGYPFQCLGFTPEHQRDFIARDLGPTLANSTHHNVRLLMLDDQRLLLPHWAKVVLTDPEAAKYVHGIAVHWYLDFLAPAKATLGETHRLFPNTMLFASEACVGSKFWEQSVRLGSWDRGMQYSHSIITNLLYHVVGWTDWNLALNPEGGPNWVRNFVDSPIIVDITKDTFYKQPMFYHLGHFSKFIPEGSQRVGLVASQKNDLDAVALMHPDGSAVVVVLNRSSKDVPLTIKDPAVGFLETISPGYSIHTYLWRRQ

For orientation: CC50 means the concentration at which the toxic effect on the cells reaches its halfway point. Take `CCOc1ccc(/C=N/NC(=O)c2ccccc2O)cc1CN1CC2CC(C1)c1cccc(=O)n1C2` (stereo not given): in [1], the CC50 is 23 µM (active).

One may read the EC50 as the concentration giving half of the maximal effect. As for `CC(C)CCn1nnnc1C(c1ccccc1)N1CCC(C(N)=O)CC1` (stereo not given), the concentration giving a half-maximal response (EC50) in assay [2] was > 10 µM (not active).

Turning to `CC1=NC(=O)C(N=Nc2ccccc2C(=O)O)N1c1ccccc1` (stereo not given), the EC50 is 9.92 µM (active) in assay [3], 16.9 µM (not active) in assay [4] and > 3.94 µM (active) with HEK293.

What is called IC50 is the concentration needed to halve the response being measured. In the case of `Cc1c(N2C(=O)/C(=C\c3ccc(N(C)C)cc3)N(C)C2=S)c(=O)n(-c2ccccc2)n1C`, the EC50 in [5] is > 100 µM (active). For the same compound, the IC50 on Protein skinhead-1 was 57.2 µM (inactive); in assay [6], 37.9 µM (not active); in [7], 74.4 µM (active); against Insulin-degrading enzyme, 13.9 µM (not active).
